Results on 18 compounds are retold here after patent US9388172B2, “Substituted carbamate compounds” (Hoffmann-La Roche Inc., priority 2012, dated 2016).

Where a name gives a salt, the structure may show the parent alone.

T1 sequence (O75762 whole entry): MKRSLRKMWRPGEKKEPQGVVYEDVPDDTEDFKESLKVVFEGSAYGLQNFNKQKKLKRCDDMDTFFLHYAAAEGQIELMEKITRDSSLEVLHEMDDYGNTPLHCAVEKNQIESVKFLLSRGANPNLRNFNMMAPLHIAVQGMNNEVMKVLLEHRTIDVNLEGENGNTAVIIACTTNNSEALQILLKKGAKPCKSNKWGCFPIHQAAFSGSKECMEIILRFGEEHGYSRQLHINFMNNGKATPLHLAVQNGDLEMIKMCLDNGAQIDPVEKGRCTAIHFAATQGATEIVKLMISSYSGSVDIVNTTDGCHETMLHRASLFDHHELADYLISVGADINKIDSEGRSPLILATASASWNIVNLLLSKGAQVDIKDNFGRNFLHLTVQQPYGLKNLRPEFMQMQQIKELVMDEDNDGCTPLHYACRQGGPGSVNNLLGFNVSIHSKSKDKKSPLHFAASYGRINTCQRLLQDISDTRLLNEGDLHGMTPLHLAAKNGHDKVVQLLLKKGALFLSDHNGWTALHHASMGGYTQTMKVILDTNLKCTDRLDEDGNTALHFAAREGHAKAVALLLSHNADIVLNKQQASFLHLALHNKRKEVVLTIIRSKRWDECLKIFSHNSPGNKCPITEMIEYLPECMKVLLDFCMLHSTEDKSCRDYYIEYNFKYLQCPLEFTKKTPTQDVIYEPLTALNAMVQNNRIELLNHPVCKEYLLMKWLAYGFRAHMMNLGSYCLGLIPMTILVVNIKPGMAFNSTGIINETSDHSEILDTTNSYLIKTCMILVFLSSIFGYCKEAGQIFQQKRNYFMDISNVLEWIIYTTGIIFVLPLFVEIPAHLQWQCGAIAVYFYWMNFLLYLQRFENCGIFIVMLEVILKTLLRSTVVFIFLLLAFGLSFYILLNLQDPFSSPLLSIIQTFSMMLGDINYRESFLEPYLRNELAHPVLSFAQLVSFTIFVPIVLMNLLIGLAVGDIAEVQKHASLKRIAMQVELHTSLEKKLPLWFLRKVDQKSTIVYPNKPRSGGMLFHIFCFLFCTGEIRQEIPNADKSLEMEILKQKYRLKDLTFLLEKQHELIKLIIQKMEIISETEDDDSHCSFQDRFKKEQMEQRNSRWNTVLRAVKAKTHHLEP

This assay has as its target T1, hTRPA1 (Homo sapiens, UniProt O75762).
T1 construct: host or cells: CHO-K1 Tet-On HOMSA TRPA1 Clone 20 (Chinese Hamster Ovary cells, inducible expression)
The experiment in a line: ChanTest hTRPA1-CHO calcium flux dose response assay (FLIPR, cinnamaldehyde agonist). The following applies: CHO-K1 Tet-On hTRPA1 cells, 100 uM cinnamaldehyde agonist, 30 min compound preincubation. The format is cell-based. How it is done: IC50 Determination of Exemplified Compounds Dose Response Assay: ChanTest hTRPA1-CHO Stably Transfected Cell Line
CHO-K1 Tet-On HOMSA TRPA1 Clone 20
0.40 mg/ml Zeocin • The cell line doubling rate was ˜15 hours. […] Experiments were run at 24 hours post induction.
Plating Conditions CHOK1/TRPA1 Cells: • Harvested cells with 0.025% trypsin/EDTA. • Resuspended cells in growth media without selection antibiotics. • Measured cell density and diluted to 2.4×10^5 cells/ml in media containing 1 ug/ml Doxycycline Plate 25 ul/well into 384 well black/clear tissue culture-treated plates. • Incubated overnight at 37° C.
• Replacement Buffer: Hank's Balanced Salt Solution, 20 mM HEPES along with 0.005% BSA and 2× Probenecid • Dye Loading Buffer: Cal-3 NW Calcium dye was prepared by dissolving the contents of one vial with 500 ml Hank's Balanced Salt Solution containing 20 mM HEPES.
Control Compounds for CHOK1/TRPA1 Cells: • AP-18, stock 10 mM, prepare 3.5× compound dilution in a Compound Buffer (HBSS/20 mM HEPES/0.005% BSA)−final concentration 10 uM.
Preparation of Cinnamaldehyde (Agonist Addition): • FW=132.16 • Specific gravity=1.046 gm/cc • 1.32 gm/1.046 gm/cc=1.26 ml of stock • Add 1.74 ml DMSO=3.3 M stock • Working solution 4.5× (final 100 uM in Compound Buffer: HBSS/20 mM HEPES/0.005% BSA)
Compounds dilutions were prepared from 5 or 10 mM stock (100% DMSO): • Adjustments of volumes and concentrations were made at time of titration to reflect desired final assay concentrations. • Compounds were tested at either 20 μM three folds dilution 11 steps out or 30 μM two folds dilution 11 steps out. • 3 μl of diluted compound were transferred into Weidmann 384-well plate in duplicates side-by-side. • Compound plates were resuspended with 100 ul of HBSS/20 mM HEPES/0.005% BSA buffer (Compound Buffer): • column 1A-H: buffer/DMSO (bk) • column 2A-H: AP-18 (control antagonist for CHOK1 TRPA1 cells) • column 1I-P: ATP (control for CHOK1 teton cells) • column 2I-P: 2APB (control antagonist for CHOK1/TRPM8 cells).
Growth media was removed from the cell plates (20 ul) and 20 ul of the Replacement Buffer was added followed by addition of 25 ul of diluted dye. All three steps were performed using a Plate Washer BioTek 407. The plates were then incubated for 30′ at RT.
After incubation, both the cell and compound plates were brought to the FLIPR and 20 ul of the diluted compounds/antagonist/bk were transferred to the cell plates by the FLIPR. Plates were then incubated for 30′ at room temperature. After 30′ incubation, plates were returned to the FLIPR and 20 ul of 4.5× Cinnamaldehyde was added to the cell plates. During the compound addition as well as agonist addition, fluorescence readings were taken simultaneously from all 384 wells of the cell plate every 1.5 seconds. Five readings were taken to establish a stable baseline, then 20 ul of sample was rapidly (30 ul/sec) and simultaneously added to each well of the cell plate. The fluorescence was continuously monitored before, during and after sample/agonist addition for a total elapsed time of 100 seconds (compound addition) and 120 seconds (agonist addition). Responses (increase in peak fluorescence) in each well following agonist addition was determined. The initial fluorescence reading from each well, prior to ligand stimulation, was used a zero baseline value for the data from that well.
Usually IC50 stands for the midpoint of a concentration-inhibition curve. As for `FC(F)(F)c1cccc(C2CCCN(CC(Cc3nc(-c4ccc(Cl)cc4)no3)C(F)(F)F)C2)c1` (mixture of isomers) [Example 14, 1-{2-[3-(4-Chlorophenyl)-[1,2,4]oxadiazol-5-ylmethyl]-3,3,3-trifluoro-propyl}-3-(3-trifluoromethyl-phenyl)-piperidine hydrochloride], the IC50 came out at 2.66 µM.
Regarding `FC(F)(F)c1cccc(C2CCCN(CC(Cc3nc4cc(Cl)ccc4[nH]3)C(F)(F)F)C2)c1` (stereo not drawn) [Example 1, 5-Chloro-2-{3,3,3-trifluoro-2-[3-(3-trifluoromethyl-phenyl)-piperidin-1-ylmethyl]-propyl}-1H-benzoimidazole hydrochloride], the IC50 worked out at 6.72 µM.
The figure for `FC(F)(F)c1cccc(C2CCCN(CC(Cc3ncc(-c4ccc(Cl)cc4)[nH]3)C(F)(F)F)C2)c1` (stereo not drawn) [Example 2, 1-{2-[5-(4-Chlorophenyl)-1H-imidazol-2-ylmethyl]-3,3,3-trifluoro-propyl}-3-(3-trifluoromethyl-phenyl)piperidine hydrochloride] is 3.7 µM; for `FC(F)(F)c1cccc(C2CCCN(CC(Cc3nnc(-c4ccc(Cl)cc4)o3)C(F)(F)F)C2)c1` (stereo not drawn) [Example 3, 1-{2-[5-(4-Chloro-phenyl)-[1,3,4]oxadiazol-2-ylmethyl]-3,3,3-trifluoro-propyl}-3-(3-trifluoromethyl-phenyl)-piperidine hydrochloride] it is 0.702 µM; for `FC(F)(F)c1cccc(C2CCCN(CC(Cc3nc4ccc(Cl)cc4o3)C(F)(F)F)C2)c1` (stereo not drawn) [Example 4, 6-Chloro-2-{3,3,3-trifluoro-2-[3-(3-trifluoromethyl-phenyl)-piperidin-1-ylmethyl]-propyl}-benzooxazole hydrochloride] it is 12.3 µM.
Take `FC(F)(F)c1cccc(C2CCCN(CC(Cc3ncc(-c4ccccc4)[nH]3)C(F)(F)F)C2)c1` (stereo not drawn) [Example 5, 3-(3-Trifluoromethyl-phenyl)-1-[3,3,3-trifluoro-2-(5-phenyl-1H-imidazol-2-ylmethyl)-propyl]-piperidine hydrochloride]: the IC50 was determined as 11.2 µM.
The figure for `FC(F)(F)c1cccc(C2CCCN(CC(Cc3ncc(-c4cccc(Cl)c4)[nH]3)C(F)(F)F)C2)c1` (stereo not drawn) [Example 6, 1-{2-[5-(3-Chlorophenyl)-1H-imidazol-2-ylmethyl]-3,3,3-trifluoro-propyl}-3-(3-trifluoromethyl-phenyl)piperidine hydrochloride] is 2.26 µM; for `Fc1ccc(-c2cnc(CC(CN3CCCC(c4cccc(C(F)(F)F)c4)C3)C(F)(F)F)[nH]2)cc1` (stereo not drawn) [Example 7, 1-{3,3,3-Trifluoro-2-[5-(4-fluoro-phenyl)-1H-imidazol-2-ylmethyl]-propyl}-3-(3-trifluoromethyl-phenyl)-piperidine hydrochloride] it is 6.05 µM.
In the case of `Fc1ccc(-c2nnc(CC(CN3CCCC(c4cccc(C(F)(F)F)c4)C3)C(F)(F)F)o2)cc1` (stereo not drawn) [Example 8, 1-{3,3,3-Trifluoro-2-[5-(4-fluorophenyl)-[1,3,4]oxadiazol-2-ylmethyl]-propyl}-3-(3-trifluoromethyl-phenyl)-piperidine hydrochloride], the half-maximal inhibitory concentration (IC50) worked out at 0.116 µM.
With `FC(F)(F)c1cccc(C2CCCN(CC(Cc3nnc(-c4cccc(Cl)c4)o3)C(F)(F)F)C2)c1` (stereo not drawn) [Example 9, 1-{2-[5-(3-Chloro-phenyl)-[1,3,4]oxadiazol-2-ylmethyl]-3,3,3-trifluoro-propyl}-3-(3-trifluoromethyl-phenyl)-piperidine hydrochloride], the IC50 was found to be 9.11 µM.
The result for `Cc1ccc(-c2nnc(CC(CN3CCCC(c4cccc(C(F)(F)F)c4)C3)C(F)(F)F)o2)cn1` (stereo not drawn) [Example 10, 2-Methyl-5-(5-{3,3,3-trifluoro-2-[3-(3-trifluoromethyl-phenyl)-piperidin-1-ylmethyl]-propyl}-[1,3,4]oxadiazol-2-yl)-pyridine] reads 2.4 µM.
The figure for `FC(F)(F)c1cccc(C2CCCN(CC(Cc3nnc(-c4ccc(Cl)cn4)o3)C(F)(F)F)C2)c1` (stereo not drawn) [Example 11, 5-Chloro-2-(5-{3,3,3-trifluoro-2-[3-(3-trifluoromethyl-phenyl)-piperidin-1-ylmethyl]-propyl}-[1,3,4]oxadiazol-2-yl)-pyridine hydrochloride] is 30 µM; for `Fc1ccc(-c2nnc(CC(CN3CCOC(c4cccc(C(F)(F)F)c4)C3)C(F)(F)F)o2)cc1` (stereo not drawn) [Example 12, 4-{3,3,3-Trifluoro-2-[5-(4-fluoro-phenyl)-[1,3,4]oxadiazol-2-ylmethyl]-propyl}-2-(3-trifluoromethyl-phenyl)-morpholine hydrochloride] it is 0.112 µM; for `FC(F)(F)c1cccc(C2CCCN(CC(Cc3ncc(-c4ccc(Cl)cc4)o3)C(F)(F)F)C2)c1` (stereo not drawn) [Example 13, 1-{2-[5-(4-Chloro-phenyl)-oxazol-2-ylmethyl]-3,3,3-trifluoro-propyl}-3-(3-trifluoromethyl-phenyl)-piperidine hydrochloride] it is 7.27 µM.
Turning to `Fc1ccc(-c2nc(CC(CN3CCCC(c4cccc(C(F)(F)F)c4)C3)C(F)(F)F)no2)cc1` (stereo not drawn) [Example 15, 1-{3,3,3-Trifluoro-2-[5-(4-fluoro-phenyl)-[1,2,4]oxadiazol-3-ylmethyl]-propyl}-3-(3-trifluoromethyl-phenyl)-piperidine hydrochloride], the 50% inhibitory concentration (IC50) was 0.318 µM.
The figure for `FC(F)(F)c1cccc(C2CN(CC(Cc3nnc(-c4ccc(Cl)cc4)o3)C(F)(F)F)CCO2)c1` (stereo not drawn) [Example 16, 4-{2-[5-(4-Chlorophenyl)-[1,3,4]oxadiazol-2-ylmethyl]-3,3,3-trifluoropropyl}-2-(3-trifluoromethyl-phenyl)-morpholine hydrochloride] is 0.228 µM; for `Fc1ccc(-c2nnc(CC(CN3CCOC(c4ccc(C(F)(F)F)cc4)C3)C(F)(F)F)o2)cc1` (stereo not drawn) [Example 17, 4-{3,3,3-Trifluoro-2-[5-(4-fluoro-phenyl)-[1,3,4]oxadiazol-2-ylmethyl]-propyl}-2-(4-trifluoromethyl-phenyl)-morpholine hydrochloride] it is 0.0621 µM.
For the compound `FC(F)(F)c1ccc(C2CN(CC(Cc3nnc(-c4ccc(Cl)cc4)o3)C(F)(F)F)CCO2)cc1` (stereo not drawn) [Example 18, 4-{2-[5-(4-Chloro-phenyl)-[1,3,4]oxadiazol-2-ylmethyl]-3,3,3-trifluoro-propyl}-2-(4-trifluoromethyl-phenyl)-morpholinehydrochloride], the IC50 worked out at 0.267 µM.
